Experimental data from US20050181467A1, “ATP extraction method” (priority 2000, published 2005).

Target: luciferase (Photinus pyralis, UniProt P08659)
Assay: ATP-luciferin-luciferase assay (light intensity, luminometer)
Assay type: biochemical, firefly
Conditions: for effect on light intensity: diluted concentrations compared with the positively charged extractant, 5; for neutralizing the inhibitory effect(s) of commonly employed extractants on the ATP-luciferin-luciferase light reaction: overall conclusion, SDS at the proper concentrations
Procedure: ATP-luciferin-luciferase assays were conducted to determine the effect of the following on assay activity: (1) Tween® 20 (2% Tween® 20 in 50 mM tricene buffer, pH 6.75), (2) MgSO4 (0.229 g/L in 50 mM tricene buffer, pH 7.46), (3) SDS (0.268 g/L in 50 mM tricene buffer, pH 7.61) and (4) a combination of MgSO4 and various amounts of Tween®. Each of these substances were assayed alone and in the presence of a commonly used positively charged ATP extractant, i.e., benzalkonium chloride (0.3325 g/L). Many of the assays were conducted in the presence of the following sanitizers: Ster-Bac® (1 oz/4 gal); Ster-Bac® (2.5 ml/L); XY-12 (200 ppm); XY-12 (600 ppm); Simplex Quat (1 oz/gal); Kleer-Mor® (1 oz/2 gal); and Kleer-Mor® (4 oz/2 gal). The MgSO4 and SDS assays were conducted using molar concentrations of MgSO4 and SDS equal to that of the positively charged extractant, as well as using molar concentrations of MgSO4 and SDS diluted as compared to that of the positively charged extractant.
Depending on the substance being tested, sanitizer, neutralizer (i.e., Tween® 20, MgSO4 or SDS), ATP solution, luciferin/luciferase cocktail, extractant and/or benzalkonium chloride (in various combinations) were placed in a cuvette and light intensity was read. Each sanitizer was run in duplicate. A control tube containing buffer and ATP was also run. Light output was measured in a Monolight 3010 luminometer. Each experiment was conducted in total volume of 0.42 ml in the curvette.

luciferase, sequence (P08659 whole entry, species assumed): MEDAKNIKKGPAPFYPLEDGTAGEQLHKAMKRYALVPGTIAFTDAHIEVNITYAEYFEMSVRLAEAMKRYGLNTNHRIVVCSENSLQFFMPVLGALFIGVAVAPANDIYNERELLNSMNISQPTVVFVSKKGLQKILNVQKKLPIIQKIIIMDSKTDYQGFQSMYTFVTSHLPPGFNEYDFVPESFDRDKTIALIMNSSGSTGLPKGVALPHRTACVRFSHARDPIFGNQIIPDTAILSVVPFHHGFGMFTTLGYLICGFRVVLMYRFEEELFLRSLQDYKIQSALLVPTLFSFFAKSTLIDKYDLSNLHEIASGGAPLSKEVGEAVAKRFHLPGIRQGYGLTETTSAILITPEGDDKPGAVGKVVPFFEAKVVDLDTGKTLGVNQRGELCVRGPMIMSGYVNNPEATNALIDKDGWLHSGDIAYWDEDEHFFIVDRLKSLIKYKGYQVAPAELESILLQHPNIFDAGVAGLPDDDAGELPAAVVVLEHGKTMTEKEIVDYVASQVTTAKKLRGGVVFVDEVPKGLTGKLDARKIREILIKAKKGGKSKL

Compound	effect on light intensity (FIGS. 4A-4C)	performance as neutralizer compared with SDS (intensity of light) (equal concentrations of neutralizer and extractant, with sanitizer, with extractant and alone, FIG. 3)	performance as neutralizer compared with Tween 20 (intensity of light) (equal concentrations of neutralizer and positively charged extractant (benzalkonium chloride), various sanitizers, FIGS. 1 and 2)	neutralizing the effects of sanitizer (extractant, sanitizer and ATP-luciferin-luciferase solution, FIGS. 6A, 6B)	neutralizing the inhibitory effect(s) of commonly employed extractants on the ATP-luciferin-luciferase light reaction	neutralizing the inhibitory effects of benzalkonium chloride (diluted 1:2 or more compared with the extractant, FIGS. 4A-4C)	effect on the light reaction (equal concentrations of neutralizer and positively charged extractant, FIG. 3)	effect on the light reaction at too high a concentration (present at too high a concentration)
O=S(=O)([O-])[O-].[Mg+2] [MgSO4, magnesium sulfate]	increased light intensity over the undiluted MgSO4	performed better than SDS in all assays	performed better than Tween® 20 as a neutralizer for all sanitizers except one	works at least as well and, in most cases, better than Tween® 20	more effective than Tween® 20	–	–	–
CCCCCCCCCCCCOS(=O)(=O)[O-].[Na+] [SDS, sodium dodecyl sulfate]	did not affect (inhibit) light intensity	–	–	–	neutralizes the inhibitory effect(s)	effective in neutralizing the inhibitory effects of benzalkonium chloride	not effective and inhibited the light reaction	completely eliminate the light reaction
